Measured values taken from patent US6949250B2, “Selective algaecides for control of cyanochloronta” (The United States of America as represented by the …, priority 2002, dated 2005).

Experiments:
2-methylisoborneol [1] = experiment: DNA1-19-1 first pond efficacy study (limnocorrals): MIB levels; type: in vivo; settings: 2 μM
chlorophyll a [2] = experiment: DNA1-19-1 first pond efficacy study (limnocorrals): chlorophyll a; type: in vivo; settings: 2 μM, within 24 hours
chlorophyll a [3] = experiment: DNA1-19-1 second and third pond efficacy studies: chlorophyll a; type: in vivo; settings: second and third efficacy study; 1, 0.3, and 0.1 μM
Method: (§1) The method described by Schrader et al. (2000) was used to determine the potential for using the anthraquinone derivatives as selective algicides in catfish aquaculture ponds. All catfish ponds used in efficacy tests were maintained using commercial pond management practices and were located at the Thad Cochran Pond Facility, Mississippi State University, Stoneville, Miss. Anthraquinone analogs were dissolved in deionized water before application to water within the limnocorrals.
(§2) Limnocorrals in which test compound was applied to the enclosed water were randomly selected, and control (no test compound applied) limnocorrals were included in each efficacy study. For each sampling, two water samples (250 mL) were obtained from within each limnocorral (approximately 6-8 cm below the water surface and from opposite sides of each limnocorral) and mixed together in a 500 mL sample bottle to provide a representative sample of the water contained within the limnocorral.
In the second study with DNA1-19-1, twelve limnocorrals that were the same size as those used in the first study were placed in another 4-ha earthen catfish pond. […] The sampling regime and procedures used in the first study were followed in a similar manner, except that water samples were obtained before DNA1-19-1 application, 16 hours after application, and at days 2, 4, and 7. […]

[4] = Detection of DNA1-19-1 in pond water samples; type: physicochemical; settings: samples collected at and after 24 hours after application to water within limnocorrals
Text: The attempts to develop a reproducible analytical method to determine the levels of DNA1-19-1 in the pond water were unsuccessful. DNA1-19-1 is believed to bind quickly to suspended soil particles due to the positively charged nature of the 2-methylamino chain; evident by the lack of detection of DNA1-19-1 in the water. Since the levels of suspended soil particles in each water sample varied and an accurate measurement of the soil particles present in each sample could not be obtained, the consistent recoveries of DNA1-19-1 from the particulate portions of water samples could not be achieved.

2-methylisoborneol [5] = experiment: DNA2-59-1 second pond efficacy study: MIB levels; type: in vivo; settings: 0.3 μM, after three days
Method: as §1, §2
(§3) In the second efficacy test with DNA2-59-1, six limnocorrals (1.53 m in diameter and 1.53 m high) were placed in a 0.1-ha earthen pond containing a heavy bloom of O. perornata. The same delay in mixing the water within the limnocorrals used in the first efficacy study was utilized. Water within three randomly selected limnocorrals received an application rate of 0.3 μM DNA2-59-1, and the other three limnocorrals were controls. […]

chlorophyll a [6] = experiment: DNA2-59-1 first pond efficacy study: chlorophyll a; type: in vivo
Method: as §1
Limnocorrals in which test compound was applied to the enclosed water were randomly selected, and control (no test compound applied) limnocorrals were included in each efficacy study. […]
In the first study, application rates of 0.1 μM (37.7 μg/L), 0.3 μM ([…]), and 1.0 μM (377 μg/L) of DNA2-59-1 were tested using limnocorrals (three replicates per concentration) that were of the same type used for testing DNA1-19-1. […] Water samples were also analyzed to determine the persistence of DNA2-59-1 in the pond water, and this analysis was performed by using high-pressure liquid chromatography (HPLC) (method and results are described later).

diatoms = experiment: DNA2-59-1 third pond efficacy study: diatom abundance; type: in vivo; settings: 0.3 μM, from three days after application
Method: as §1, §2
(§4) For the third efficacy test with DNA2-59-1, twelve limnocorrals (2.44 m in diameter and 1.53 m high) were placed in a 4-ha earthen pond containing a bloom of O. perornata. […]

Raphidiopsis brookii [7] = experiment: DNA2-59-1 third pond efficacy study: Raphidiopsis brookii abundance; type: in vivo; settings: 0.3 μM, one day after application
Method: as §1, §2, §4

Microcystis spp. = experiment: DNA2-59-1 third pond efficacy study: Microcystis spp. abundance; type: in vivo; settings: 0.3 μM
Method: as §1, §2, §4

Oscillatoria perornata = experiment: DNA2-59-1 second pond efficacy study: O. perornata abundance; type: in vivo; settings: 0.3 μM, within three days of application
Method: as §1, §2, §3

Raphidiopsis brookii [8] = experiment: DNA2-59-1 second pond efficacy study: Raphidiopsis brookii abundance; type: in vivo; settings: 0.3 μM, within three days of application
Method: as §1, §2, §3

Oscillatoria geminata = experiment: DNA2-59-1 third pond efficacy study: Oscillatoria geminata abundance; type: in vivo; settings: 0.3 μM, from two days through four days after application
Method: as §1, §2, §4

Oscillatoria agardhii = experiment: DNA2-59-1 second pond efficacy study: Oscillatoria agardhii abundance; type: in vivo; settings: 0.3 μM
Method: as §1, §2, §3

Structure (SMILES)	Levels of MIB after reduction (2-methylisoborneol [1]) [ng/mL]	time MIB levels remained much lower than in the controls (2-methylisoborneol [1]) [days]	Levels of MIB before reduction (2-methylisoborneol [1]; ng/mL (ppb))	Chlorophyll a levels (result in words) (chlorophyll a [2])	chlorophyll a levels compared to controls (result in words) (chlorophyll a [3])	detection in soluble fractions of water samples (result in words) [4]	Levels of MIB (result in words) (2-methylisoborneol [5])	Chlorophyll a levels significantly reduced compared to controls (result in words) (chlorophyll a [6]; 0.1 μM)	chlorophyll a levels compared to controls (result in words) (chlorophyll a [6]; 1 and 0.3 μM)	Numbers of diatoms vs control limnocorrals (result in words) (diatoms)	Numbers of Raphidiopsis brookii (result in words) (Raphidiopsis brookii [7])	Microcystis spp. compared to control limnocorrals (result in words) (Microcystis spp.)	Numbers of O. perornata (result in words) (Oscillatoria perornata)	Numbers of Raphidiopsis brookii (result in words) (Raphidiopsis brookii [8])	abundance of Oscillatoria geminate vs controls (result in words) (Oscillatoria geminata)	Numbers of Oscillatoria agardhii (result in words) (Oscillatoria agardhii)
CCN(CC)CCCC(C)NCc1ccc2c(c1)C(=O)c1ccccc1C2=O.O=P(O)(O)O.O=P(O)(O)O (stereo not shown) [DNA1-19-1, 2-[methylamino-N-(1′-methyl-4′-N,N-diethylaminobutyl)]-9,10-anthraquinone diphosphate]	~970	8	15,250 ng/mL	decreased significantly	lack of reduction	could not be detected	–	–	–	–	–	–	–	–	–	–
CC(C)NCc1ccc2c(c1)C(=O)c1ccccc1C2=O [DNA2-59-1, 2-[methylamino-N-(1′-methylethyl)]-9,10-anthraquinone monophosphate]	–	–	–	–	–	–	significantly reduced	not	significantly reduced	significantly higher	significantly reduced	not greatly affected	significantly and dramatically reduced	significantly and dramatically reduced	significantly lower than controls	not affected
